Measurements as given in patent EP4603105A1, “PHARMACEUTICAL COMPOSITION CONTAINING CYCLIC COMPOUND HAVING SELECTIVE KRAS INHIBITORY EFFECT AGAINST HRAS AND NRAS” (CHUGAI SEIYAKU KABUSHIKI KAISHA, priority 2022, dated 2024).
*1 amine or outer side, *2 acyl side, *3 side chain or, on linkers, in order; H or OH if unused. Where a SMILES comes first, the peptide text is derived from it. Bridges are numbered along the chain shown (N, C = ends). [ ]: non-standard residue; d: D form. The star is where a group is joined. hPhe(3,5-F2-4-CF3) = N[C@@H](CCc1cc(F)c(C(F)(F)F)c(F)c1)C(=O)O; hPhe(3-Cl-4-CF3) = N[C@@H](CCc1ccc(C(F)(F)F)c(Cl)c1)C(=O)O; NPrPhe(4-CF3) = CCCN[C@@H](Cc1ccc(C(F)(F)F)cc1)C(=O)O; X16 = O=C([C@@H](N[*:1])C1CC(F)(F)C1)[*:2]; NMeGly(cPent) = CN[C@H](C(=O)O)C1CCCC1; Pro(4,4-F2) = O=C(O)[C@@H]1CC(F)(F)CN1; Hyp = O=C(O)[C@@H]1C[C@@H](O)CN1; NMeD = CN[C@@H](CC(=O)O)C(=O)O; NMeL = CN[C@@H](CC(C)C)C(=O)O; Morpholide = C1CN(*)CCO1; Ac5c = NC1(C(=O)O)CCCC1; Aze = O=C(O)[C@@H]1CCN1; Ac4c = NC1(C(=O)O)CCC1; NEtG = CCNCC(=O)O; Sar = CNCC(=O)O

Key:
HRAS wild-type protein = HRAS wild-type protein (Homo sapiens, UniProt P01112); test: Binding to HRAS by surface plasmon resonance (SPR), KD and KD ratio to KRAS
Method in brief: (§1)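 Measured at 30°C: SPR with GDP-loaded, E. coli-expressed biotin-Avi RAS captured (~100–300 RU), ascending 75 s compound injections, HBS pH 7.4 with GDP, MgCl2, 4% DMSO. KD from 1:1 fit.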

[1] = target: GDP-bound NRAS wild-type protein (Homo sapiens, UniProt P01111); test: Binding to NRAS by surface plasmon resonance (SPR), KD and KD ratio to KRAS
Method in brief: as §1

[2] = test system: human lung cancer strain NCI-H441; format: cell-based
Method in brief: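 Signal came from […] measured per well once the reagent was added. Beforehand, cells were cultured at 37°C and 5% carbon dioxide on a compound series serially diluted in dimethyl sulfoxide.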

[3] = ratio of KD for HRAS wild-type protein to KD for KRAS
[4] = ratio of KD for GDP-bound NRAS wild-type protein to KD for KRAS
[5] = ratio of KD value for HRAS wild-type protein to KD value for KRAS (SPR)
[6] = ratio of KD value for GDP-bound NRAS wild-type protein to KD value for KRAS (SPR)
[7] = ratio of the KD value with respect to HRAS wild-type protein to the KD value with respect to KRAS
[8] = ratio of the KD value with respect to GDP-bound NRAS wild-type protein to the KD value with respect to KRAS

Sequence of GDP-bound NRAS wild-type protein (P01111 whole entry): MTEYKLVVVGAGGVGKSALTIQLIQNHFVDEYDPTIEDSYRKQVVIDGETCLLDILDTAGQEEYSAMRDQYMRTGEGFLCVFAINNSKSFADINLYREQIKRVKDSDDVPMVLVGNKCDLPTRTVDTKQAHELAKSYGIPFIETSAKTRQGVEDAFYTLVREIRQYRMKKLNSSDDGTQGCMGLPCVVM
Sequence of HRAS wild-type protein (P01112 whole entry): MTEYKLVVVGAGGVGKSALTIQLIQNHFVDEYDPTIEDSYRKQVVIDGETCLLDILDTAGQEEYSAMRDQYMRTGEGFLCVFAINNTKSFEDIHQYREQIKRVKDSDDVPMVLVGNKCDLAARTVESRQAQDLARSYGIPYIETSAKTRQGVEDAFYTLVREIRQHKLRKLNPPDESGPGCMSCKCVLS

Structure (SMILES) | HRAS /KRAS (HRAS wild-type protein; [3]) | NRAS /KRAS [1, 4] | IC50 [2] [nM] | HRAS /KRAS (HRAS wild-type protein; [5]) | NRAS /KRAS [1, 6] | HRAS /KRAS (HRAS wild-type protein; [7]) | NRAS /KRAS [1, 8]
CCO[C@@H]1C[C@H]2C(=O)NC3(CC(C)(C)C3)C(=O)N(C)[C@@H](C3CCCC3)C(=O)N(C)[C@H](C(=O)N(C)CC)CC(=O)N(C)[C@H]3CCC/C=C/c4ccc(cc4)C[C@@H](C(=O)N(C)CC(=O)N[C@@H](CCc4ccc(Cl)c(Cl)c4)C(=O)N2C1)N1CC/C=C\C[C@@H](C1=O)N(C)C(=O)CN(C)C(=O)[C@H]([C@@H](C)CC)NC3=O [PP2577] | A (a compound having 10 or more and less than 20 is denoted as A) | A (a compound having 10 or more and less than 20 is denoted as A) | 4.1 | – | – | – | –
CCO[C@@H]1C[C@H]2C(=O)NC3(CCC3)C(=O)N(C)[C@@H](C3CCCC3)C(=O)N(C)[C@H](C(=O)N(C)C)CC(=O)N(C)[C@@H](CC)C(=O)N[C@@H]([C@@H](C)CC)C(=O)NCC(=O)N(C)[C@H]3C/C=C\CCN(C3=O)[C@@H](Cc3ccc(C(F)(F)F)cc3)C(=O)N(C)CC(=O)N[C@@H](CCc3cc(F)c(C(F)(F)F)c(F)c3)C(=O)N2C1 [PP0983] | A (a compound having 10 or more and less than 20 is denoted as A) | A (a compound having 10 or more and less than 20 is denoted as A) | 19.5 | – | – | – | –
CCC[C@H]1C(=O)N[C@@H]([C@@H](C)CC)C(=O)N(C)CC(=O)N(C)[C@H]2C/C=C\CCN(C2=O)[C@@H](Cc2ccc(C(F)(F)F)cc2)C(=O)N(C)CC(=O)N[C@@H](CCc2cc(F)c(C(F)(F)F)c(F)c2)C(=O)N2C[C@H](OCC)C[C@H]2C(=O)NC2(CC(C)(C)C2)C(=O)N(C)[C@@H](C2CCCC2)C(=O)N(C)[C@H](C(=O)N(C)CC)CC(=O)N1C [PP1646] | – | – | 2.8 | A (a compound having 10 or more and less than 20 is denoted as A) | A (a compound having 10 or more and less than 20 is denoted as A) | – | –
CCO[C@@H]1C[C@H]2C(=O)NC3(CCC3)C(=O)N(C)[C@@H](C3CCCC3)C(=O)N(C)[C@H](C(=O)N(C)C)CC(=O)N(C)[C@@H](CC)C(=O)N[C@@H]([C@@H](C)CC)C(=O)N(C)CC(=O)N(C)[C@H]3CCCCN(C3=O)[C@@H](Cc3ccc(C(F)(F)F)cc3)C(=O)N(C)CC(=O)N[C@@H](CCc3cc(Cl)c(C(F)(F)F)c(Cl)c3)C(=O)N2C1 [PP0985] | C (A compound having a KD ratio of 0.1 or more and less than 3 is denoted as C) | C (A compound having a KD ratio of 0.1 or more and less than 3 is denoted as C) | 12.2 | – | – | – | –
CCO[C@@H]1C[C@H]2C(=O)NC3(CC(C)(C)C3)C(=O)N(C)[C@@H](C(CC)CC)C(=O)N(C)[C@H](C(=O)N(C)C)CC(=O)N(C)[C@@H](CC)C(=O)N[C@@H]([C@@H](C)CC)C(=O)N(C)CC(=O)N(C)[C@H]3C/C=C\CCN(C3=O)[C@@H](Cc3ccc(C)cc3)C(=O)N(C)CC(=O)N[C@@H](CCc3ccc(C(F)(F)F)c(OC)c3)C(=O)N2C1 [PP2170] | – | – | 8.5 | – | – | A (a compound having 10 or more and less than 20 is denoted as A) | A (a compound having 10 or more and less than 20 is denoted as A)
CC[C@H](C)[C@@H]1NC(=O)[C@H](CC(C)C)N(C)C(=O)C[C@@H](C(=O)N2CCOCC2)N(C)C(=O)[C@H](C2CCCC2)N(C)C(=O)C2(CCCC2)NC(=O)[C@@H]2CCCN2C(=O)[C@H](CCc2cc(F)c(C(F)(F)F)c(F)c2)NC(=O)CN(C)C(=O)[C@H](Cc2ccc(C(F)(F)F)cc2)N2CCCCC[C@@H](C2=O)N(C)C(=O)[C@H](C)NC1=O [PP0481] | – | – | > 1000 | – | – | B (a compound having 3 or more and less than 10 is denoted as B) | B (a compound having 3 or more and less than 10 is denoted as B)
CCCN1C(=O)CN(C)C(=O)CN(C)C(=O)[C@H]([C@@H](C)CC)NC(=O)[C@H](CC(C)C)N(C)C(=O)C[C@@H](C(=O)N(C)C)N(C)C(=O)[C@H](C2CCCC2)N(C)C(=O)C2(CCCC2)NC(=O)[C@@H]2C[C@@H](OCC)CN2C(=O)[C@H](CCc2ccc(C(F)(F)F)c(Cl)c2)NC(=O)CN(C)C(=O)[C@@H]1Cc1ccc(C(F)(F)F)cc1 [PP0415] ([NMeL]I[Sar][Sar][NPrPhe(4-CF3)][Sar][hPhe(3-Cl-4-CF3)][Hyp](Et)[Ac5c][NMeGly(cPent)][NMeD]-NMe2; lactam N-11) | – | – | 1.9 | – | – | B (a compound having 3 or more and less than 10 is denoted as B) | B (a compound having 3 or more and less than 10 is denoted as B)
CCCN1C(=O)CN(C)C(=O)CN(C)C(=O)[C@H](C2CC(F)(F)C2)NC(=O)[C@H](CC(C)C)N(C)C(=O)C[C@@H](C(=O)N2CCOCC2)N(C)C(=O)[C@H](C2CCCC2)N(C)C(=O)C2(CCCC2)NC(=O)[C@@H]2CCCN2C(=O)[C@H](CCc2cc(F)c(C(F)(F)F)c(F)c2)NC(=O)CN(C)C(=O)[C@@H]1Cc1ccc(C(F)(F)F)cc1 [PP0769] ([NMeL][X16][Sar][Sar][NPrPhe(4-CF3)][Sar][hPhe(3,5-F2-4-CF3)]P[Ac5c][NMeGly(cPent)][NMeD]-Morpholide; lactam N-11) | C (A compound having a KD ratio of 0.1 or more and less than 3 is denoted as C) | B (a compound having 3 or more and less than 10 is denoted as B) | 43.3 | – | – | – | –
CC[C@H](C)[C@@H]1NC(=O)[C@H](CC)N(C)C(=O)C[C@@H](C(=O)N2CCOCC2)N(C)C(=O)[C@H](C2CCCC2)N(C)C(=O)C2(CCCC2)NC(=O)[C@@H]2CCCN2C(=O)[C@H](CCc2cc(F)c(C(F)(F)F)c(F)c2)NC(=O)CN(C)C(=O)[C@H](Cc2ccc(C(F)(F)F)cc2)N2CCCCC[C@@H](C2=O)N(C)C(=O)CN(C)C1=O [PP0488] | – | – | 54.3 | – | – | B (a compound having 3 or more and less than 10 is denoted as B) | A (a compound having 10 or more and less than 20 is denoted as A)
CCC[C@H]1C(=O)N[C@@H]([C@@H](C)CC)C(=O)N(C)CC(=O)N(C)[C@H]2C/C=C\CCN(C2=O)[C@@H](Cc2ccc(C(F)(F)F)cc2)C(=O)N(C)CC(=O)N[C@@H](CCc2ccc(Cl)c(C(F)(F)F)c2)C(=O)N2C[C@H](OCC)C[C@H]2C(=O)NC2(CC(C)(C)C2)C(=O)N(C)[C@@H](C(CC)CC)C(=O)N(C)[C@H](C(=O)N(C)C)CC(=O)N1C [PP2785] | A (a compound having 10 or more and less than 20 is denoted as A) | AA (a compound having 20 or more is denoted as AA) | 10.5 | – | – | – | –
CCC[C@@H]1C[C@H]2C(=O)NC3(CC(C)(C)C3)C(=O)N(C)[C@@H](C3CCCC3)C(=O)N(C)[C@H](C(=O)N(C)C)CC(=O)N(C)[C@@H](COC)C(=O)N[C@@H]([C@@H](C)CC)C(=O)N(C)CC(=O)N(C)[C@H]3C/C=C\CCN(C3=O)[C@@H](Cc3ccc(C(F)(F)F)cc3)C(=O)N(C)CC(=O)N[C@@H](CCc3ccc(C(F)(F)F)c(Cl)c3)C(=O)N2C1 [PP2275] | – | – | 12.2 | – | – | A (a compound having 10 or more and less than 20 is denoted as A) | A (a compound having 10 or more and less than 20 is denoted as A)
CCCN1C(=O)CN(C)C(=O)CN(C)C(=O)[C@H]([C@@H](C)CC)NC(=O)[C@H](CC(C)C)N(C)C(=O)C[C@@H](C(=O)N2CCOCC2)N(C)C(=O)[C@H](C2CCCC2)N(C)C(=O)C2(CCCC2)NC(=O)[C@@H]2C[C@@H](OCC)CN2C(=O)[C@H](CCc2ccc(C(F)(F)F)c(Cl)c2)NC(=O)CN(C)C(=O)[C@@H]1Cc1ccc(C(F)(F)F)cc1 [PP0233] ([NMeL]I[Sar][Sar][NPrPhe(4-CF3)][Sar][hPhe(3-Cl-4-CF3)][Hyp](Et)[Ac5c][NMeGly(cPent)][NMeD]-Morpholide; lactam N-11) | C (A compound having a KD ratio of 0.1 or more and less than 3 is denoted as C) | B (a compound having 3 or more and less than 10 is denoted as B) | 1.6 | – | – | – | –
CCCN1C(=O)[C@@H]2CCN2C(=O)CN(C)C(=O)[C@H]([C@@H](C)CC)NC(=O)[C@H](CC(C)C)N(C)C(=O)C[C@@H](C(=O)N(C)C)NC(=O)[C@H](C2CCCC2)N(C)C(=O)C2(CCC2)NC(=O)[C@@H]2C[C@@H](OCC)CN2C(=O)[C@H](CCc2ccc(C(F)(F)F)c(Cl)c2)NC(=O)CN(C)C(=O)[C@@H]1Cc1ccc(C(F)(F)F)cc1 [PP0390] ([NMeL]I[Sar][Aze][NPrPhe(4-CF3)][Sar][hPhe(3-Cl-4-CF3)][Hyp](Et)[Ac4c][NMeGly(cPent)]D-NMe2; lactam N-11) | – | – | 7.6 | – | – | B (a compound having 3 or more and less than 10 is denoted as B) | C (A compound having a KD ratio of 0.1 or more and less than 3 is denoted as C)
CCO[C@@H]1C[C@H]2C(=O)NC3(CCC3)C(=O)N(C)[C@@H](C(CC)CC)C(=O)N(C)[C@H](C(=O)N(C)C)CC(=O)N(C)[C@@H](CC3CCCC3)C(=O)N[C@@H]([C@@H](C)CC)C(=O)N(C)CC(=O)N(C)[C@H]3C/C=C\CCN(C3=O)[C@@H](Cc3ccc(F)cc3C)C(=O)N(C)CC(=O)N[C@@H](CCc3cc(F)c(C(F)(F)F)c(F)c3)C(=O)N2C1 [PP1516] | – | – | 45.7 | B (a compound having 3 or more and less than 10 is denoted as B) | A (a compound having 10 or more and less than 20 is denoted as A) | – | –
CCCN1C(=O)CN(C)C(=O)CN(CC)C(=O)[C@H]([C@@H](C)CC)NC(=O)[C@H](CC(C)C)N(C)C(=O)C[C@@H](C(=O)N(C)C)NC(=O)[C@H](C2CCCC2)N(C)C(=O)C2(CCC2)NC(=O)[C@@H]2CC(F)(F)CN2C(=O)[C@H](CCc2ccc(C(F)(F)F)c(Cl)c2)NC(=O)CN(C)C(=O)[C@@H]1Cc1ccc(C(F)(F)F)cc1 [PP0370] ([NMeL]I[NEtG][Sar][NPrPhe(4-CF3)][Sar][hPhe(3-Cl-4-CF3)][Pro(4,4-F2)][Ac4c][NMeGly(cPent)]D-NMe2; lactam N-11) | C (A compound having a KD ratio of 0.1 or more and less than 3 is denoted as C) | B (a compound having 3 or more and less than 10 is denoted as B) | 63.2 | – | – | – | –
